Measured values reported in patent publication US12486298B2, “Fucosyltransferase specific inhibition using fucose mimetics” (THE FLORIDA INTERNATIONAL UNIVERSITY BOARD OF TRUSTEES, priority 2020, dated 2025).

Target: T1, fucosyltransferase VI (FTVI) (Homo sapiens, UniProt P51993)
T1 construct: purchased R&D systems
T1 sequence (P51993 35-359 limits assumed): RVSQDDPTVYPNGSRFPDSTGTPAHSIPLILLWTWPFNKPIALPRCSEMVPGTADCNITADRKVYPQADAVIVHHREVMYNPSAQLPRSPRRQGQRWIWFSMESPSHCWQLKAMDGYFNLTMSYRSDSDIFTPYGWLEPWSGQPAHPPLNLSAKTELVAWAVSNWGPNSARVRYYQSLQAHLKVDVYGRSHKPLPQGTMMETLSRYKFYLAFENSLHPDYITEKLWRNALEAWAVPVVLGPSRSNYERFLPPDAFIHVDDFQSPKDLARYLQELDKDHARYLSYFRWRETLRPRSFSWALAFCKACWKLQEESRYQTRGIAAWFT
Test: FTVI exofucosylation of RPMI-8402 cells, sLe^x and Le^x by flow cytometry
Assay type: cell-based
Method: A titration of GDP-Fucose was carried out to determine the maximum mean fluorescent intensity (MFI) of sLe^X and Le^X via flow cytometry for downstream inhibition experiments. Generally, 1×10^6 cells were used in each FTVI exofucosylation reaction and all reactions were carried out in triplicate. Cells were then stained with either Alexa-Fluor 488 Mouse Anti-Human CD15s (BD Biosciences), or APC anti-human CD15 (SSEA-1) Antibody (BioLegend). Cells were then acquired on a Canto II (BD Biosciences) flow cytometer and analylized using Flowjo software (Treestar). FTVI was purchased from R&D systems.
A Canto II (BD Biosciences) flow cytometer was utilized for flow cytometry and the data acquired was analyzed using FlowJo Software (Treestar). Cells were stained using antibodies specific to sLe^X (Alexa-Fluor 488 Mouse Anti-Human CD15s (BD Biosciences)), or Le^X (APC anti-human CD15 (SSEA-1) Antibody (BioLegend)).
Cells of the RPMI-8402 cell line and MSC cell line were treated with either 0.3 ug of fucosyltransferase VI (FTVI), 2.7 ug of fucosyltransferase VII (FTVII), 1.0 ug fucosyltransferase IX (FTIX) or buffer-only at 37° C. for 60 minutes. All reactions contained at 1×10^6 cells/30 ul in HBSS with 10 mM Hepes, 0.1% Human Serum Albumin, and 1.0 mM GDP fucose (GDP-Fuc) (Carbosynth) and the appropriate fucosytransferase. Then, mimetic 1 was added to each of the treatment groups in molar equivalents with respect to GDP-Fuc with each of the fucosytransferases. The treatment groups were as follows: 1:1 GDP-Fuc to mimetic 1 (i.e., 1.0 mM GDP-Fuc and 1.0 mM mimetic), 1:2 GDP-Fuc to mimetic 1 (i.e., 1.0 mM GDP-Fuc and 2.0 mM mimetic), or preincubated in presence of FT with a 2.0 mM solution of the mimetic 1 for 45 minutes followed by addition of a 1.0 mM solution of GDP-Fuc for 1 hour. Concentrations of the various FTs were utilized that would maximize the MFI to allow the detection of the efficacy of mimetic 1 to inhibit the various enzymes.
Exofucosylation is a technique whereby a pertinent FT together with GDP-Fuc is placed in a cell suspension to stereoselectively install fucose on pertinent acceptor cell surface glycan(s). For the case of α-1,3-FTs, this approach provides the ability to pinpoint the effect(s) of mimetic addition on creation of fucosylated glycans Le^x and sLe^x, while keeping the rest of the cell's biological functions and its viability intact. Specifically, this study focused on three α-1,3-FTs that can create sLe^x and Le^x determinants: FTVII, FTIX, and FTVI. […]
Mimetic 1 (FIG. 1) was tested as an inhibitor of FT-mediated exofucosylation on these cells and the extent of fucosylation was monitored using antibodies that detect the creation of the relevant fucosylated epitopes, i.e., sLe^x or Le^x. […]

[1] = RPMI-8402 cells, 1.0 mM GDP-Fuc with 1.0 mM or 2.0 mM mimetic 1

inhibition of FTVI production of Le^x [1]: clearly inhibited | inhibition of FTVI production of sLe^x [1]: markedly diminished | inhibition of FTVI-mediated exofucosylation after pre-incubation (pre-incubation with 2.0 mM mimetic 1 prior to addition of GDP-Fuc): inhibited more completely | concentration of highest inhibition against FTVI (titration of mimetic 1, 1.0 mM GDP-Fuc, RPMI-8402 cells, bell-shaped curve): 2.0 mM
SMILES: CC1OC2Oc3ccc(CC(=O)O)cc3SC2C(O)C1O (stereo not shown) [mimetic 1]
